Source: paper PMC9124818 (Pharmacology Research & Perspectives, 2022)
pIC50: −log10 of the molar value.

Legend:
[1] = Plasma protein binding, Rapid Equilibrium Device; assay type: in vitro ADME; conditions: pooled rat or dog plasma, pH 7.4, range
Procedure: In vitro plasma protein binding was then determined by using the Rapid Equilibrium Device (RED) with a molecular weight cutoff of 8 kDa (Thermo Fisher Scientific, Inc., Waltham, MA). […] The internal standard was niflumic acid. […] Protein binding was determined by adding a 300‐μL aliquot of the test sample or the control sample to the sample chamber of the RED and adding a 500‐μL aliquot of PBS (pH 7.4) to the buffer chamber. The device unit was sealed and incubated at 37°C for 4 h with gentle shaking (~750 rpm). After dialysis, three aliquots of the test samples (50 μL) were collected from both sample and buffer chambers and were mixed with 50 μL of methanol as “donor samples” and “acceptor samples,” respectively. […] A detailed description of the LC‐MS/MS process can be found in the Supplemental Material. Supernatant fractions were analyzed by LC‐MS/MS using an Acquity Ultra Performance Liquid Chromatography system with ethylene bridged hybrid (BEH) C18 columns (2.1 × 50 mm, 1.7 µm; Waters Corporation; Milford, MA) coupled to an API4000 mass spectrometer (AB Sciex). […] Samples were prepared in triplicate and were dialyzed for 4 h. […] Protein binding was calculated as follows: Proteinbindingratio%=100‐Unboundratio%, where Unboundratio%=AcceptorSampleConcentration/DonorSampleConcentration.

OCT2 = biological target: T1, OCT2 (Homo sapiens, UniProt O15244); assay: Transporter inhibition, uptake of [14C]-metformin in HEK293 cells; assay type: in vitro ADME; conditions: probe [14C]-metformin 10 μM
T1 construct: host or cells: HEK293
T1 sequence (O15244 1-555): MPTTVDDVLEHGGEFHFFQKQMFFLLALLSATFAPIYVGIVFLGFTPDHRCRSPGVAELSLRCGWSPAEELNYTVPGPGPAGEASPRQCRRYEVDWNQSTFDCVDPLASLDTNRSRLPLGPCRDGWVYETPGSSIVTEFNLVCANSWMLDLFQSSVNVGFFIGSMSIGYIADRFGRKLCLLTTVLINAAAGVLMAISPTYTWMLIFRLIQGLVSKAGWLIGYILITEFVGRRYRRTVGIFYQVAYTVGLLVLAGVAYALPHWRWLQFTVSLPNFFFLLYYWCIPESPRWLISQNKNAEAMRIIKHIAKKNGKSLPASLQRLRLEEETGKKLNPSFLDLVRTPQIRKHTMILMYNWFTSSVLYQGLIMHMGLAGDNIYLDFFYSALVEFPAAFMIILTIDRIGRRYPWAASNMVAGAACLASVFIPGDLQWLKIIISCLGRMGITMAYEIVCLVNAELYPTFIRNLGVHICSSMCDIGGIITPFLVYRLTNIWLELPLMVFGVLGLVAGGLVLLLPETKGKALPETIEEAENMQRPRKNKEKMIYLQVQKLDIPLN
From the text: Cells were then washed, lysed with scintillation cocktail, and analyzed for the probe substrate with a MicroBeta scintillation counter (PerkinElmer, Hopkinton, MA). Transcellular transporter assay conditions are described in Supplemental Table 1. Calculation of IC50 values was based on bidirectional permeability of probe substrate with and without the inhibitor in MDCKII cells expressing BCRP and in Caco‐2 cells expressing P‐gp, and transporter‐dependent uptake of probe substrate in HEK293 cells expressing all other transporters (Supplemental Table 1).
The transporter-specific uptake of the probe substrate in cells was determined by subtracting the accumulation in the control cells from the accumulation in the transporter-expressing cells.

Question: With `CCNC(C)Cc1cccc(C(F)(F)F)c1` (racemic) [FFA, (RS)‐ethyl(α‐methyl‐3‐trifluoromethylphenethyl)amine, reference compound] as the compound, how does the fraction unbound at 4 h [1] read?
Answer: 0.378 to 0.538

Question: With `CC(N)Cc1cccc(C(F)(F)F)c1.Cl` (centres unmarked) [nFFA, [1‐(3‐trifluoromethyl)phenyl]propan‐2‐amine hydrochloride] as the compound, how does the pIC50 (OCT2) read?
Answer: 5.28
